In experiment [1] the target is K-Ras^G12C : hSOS1 interaction (Homo sapiens, UniProt Q07889). Put plainly: Biochemical assay 1: K-Ras^G12C interaction assay with hSOS1 (HTRF). The conditions noted are these: read-out: Assay 1 (KRAS-SOS Interaction) activity expressed as IC50. Type of experiment: binding. The protocol:
Biochemical assay 1: K-Ras^G12C Interaction Assay with hSOS1
This assay quantifies the equilibrium interaction of human SOS1 with K-Ras^Gl2C. Detection of the interaction is achieved by measuring homogenous time-resolved fluorescence resonance energy transfer (HTRF) from antiGST-Europium (FRET donor) bound to GST-K-Ras^G12C to anti-6His-XL665 bound to His-tagged hSOS1 (FRET-acceptor).
The assay buffer contained 5 mM HEPES pH 7.4 (Applichem), 150 mM NaCl (Sigma), 10 mM EDTA (Promega), 1 mM DTT (Thermofisher), 0.05% BSA Fraction V, pH 7.0, (ICN Biomedicals), 0.0025% (v/v) Igepal (Sigma) and 100 mM KF (FLUKA).
Concentrations of protein batches used were optimized to be within the linear range of the HTRF signal. A Ras working solution was prepared in assay buffer containing typically 10 nM GST-hK-RasG12C and 2 nM antiGST-Eu(K) (Cisbio, France). A SOS working solution was prepared in assay buffer containing typically 20 nM His-hSOS1 and 10 nM anti-6His-XL665 (Cisbio, France). An inhibitor control solution was prepared in assay buffer containing 10 nM anti-6His-XL665 without hSOS1.
(§1) Fifty nl of a 100-fold concentrated solution of the test compound in DMSO were transferred into a black microtiter test plate (384 or 1536, Greiner Bio-One, Germany). For this, either a Hummingbird liquid handler (Digilab, MA, USA) or an Echo acoustic system (Labcyte, CA, USA) was used.
All steps of the assay were performed at 20° C. A volume of 2.5 μl of the Ras working solution was added to all wells of the test plate using a Multidrop dispenser (Thermo Labsystems). After 2 min preincubation, 2.5 μl of the SOS working solution were added to all wells except for those wells at the side of the test plate that were subsequently filled with 2.5 μl of the inhibitor control solution. After 60 min incubation the fluorescence was measured with a Pherastar (BMG, Germany) using the HTRF module (excitation 337 nm, emission 1: 620 nm, emission 2: 665 nm).
(§2) IC50 values were calculated by 4-Parameter fitting using a commercial software package (Genedata Screener, Switzerland).
(In general: Time-resolved FRET reads energy transfer from a long-lived donor to a nearby acceptor.)

Experiment [2] addresses human SOS1 (nucleotide exchange of K-Ras^G12C) (Homo sapiens, UniProt Q07889). Put plainly: Biochemical assay 2: K-Ras^G12C activation assay by hSOS1 at high GTP concentration (HTRF). As to conditions: high GTP; read-out: Assay 2 (KRAS-Activation by SOS high GTP) activity expressed as IC50.
Text: Biochemical Assay 2: K-Ras^G12C Activation Assay by hSOS1 at High GTP Concentration
This assay quantifies human SOS1-mediated nucleotide exchange of K-Ras^G12C preloaded with a fluorescent […] and in presence of an excess of free GTP. Loaded hK-Ras^G12C generates a high HTRF-signal by energy transfer from antiGST-Terbium (FRET donor) bound to K-Ras to the loaded fluorescent GDP analog (FRET-acceptor). SOS1 activity exchanges the fluorescent GDP for non-fluorescent GTP and therefore leads to a reduction of the HTRF signal.
The fluorescent GDP-analog EDA-GDP-Dy647P1 (2′/3′-O-(2-Aminoethyl-carbamoyl)-guanosine-5′-diphosphate labelled with Dy647P1 (Dyomics GmbH, Germany)) was synthesized by Jena Biosciences GmbH (Germany) and supplied as a 1 mM aqueous solution.
Concentrations of protein batches used were optimized to be within the linear range of the HTRF signal.
Preparation of GST-tagged hK-Ras^Gl2C loaded with fluorescent nucleotide was performed as follows: incubation of 11.5 μM hK-Ras^Gl2C with 5-fold excess GDP-Dy647 nucleotide (54 μM) in 500 μl NLS-buffer (RAS activation Kit Jena Bioscience, Kat. #PR-950) for 10 min at 37° C. Addition of 20 μl 1 M MgCl2 (Sigma) to final 40 mM and store on ice. Purification into buffer (10 mM HEPES pH 7.4 (Applichem), 150 mM NaCl (Sigma), 5 mM MgCl2 (Sigma)) by use of a PD-Minitrap desalting column (GE Healthcare). Concentration of 1 ml purified hK-Ras-GDP-Dy647 is approx. 4-5 μM.
The assay buffer contained 10 mM HEPES pH 7.4 (Applichem), 150 mM NaCl (Sigma), 5 mM MgCl2 (Sigma), 1 mM DTT (Thermofisher), 0.05% BSA Fraction V, pH 7.0, (ICN Biomedicals), 0.0025% (v/v) Igepal (Sigma).
A Ras working solution was prepared in assay buffer containing typically 80 nM loaded GST-hK-RasG12C-EDA-GDP-Dy647P1 and 2 nM antiGST-Tb (Cisbio, France). A hSOS1 working solution was prepared in assay buffer containing typically 8 nM His-hSOS1 and 100 μM GTP (Jena Bioscience, Germany). An inhibitor control solution was prepared in assay buffer containing the same concentration of […].
as §1
All steps of the assay were performed at 20° C. A volume of 2.5 μl of the Ras working solution was added to all wells of the test plate using a Multidrop dispenser (Thermo Labsystems). After 2 min preincubation, 2.5 μl of the hSOS1 working solution were added to all wells except for those wells at the side of the test plate that were subsequently filled with 2.5 μl of the inhibitor control solution. After 20 min incubation the fluorescence was measured with a Pherastar (BMG, Germany) using the HTRF module (excitation 337 nm, emission 1: 620 nm, emission 2: 665 nm).
as §2

By IC50 is commonly meant the concentration that gives 50% inhibition.

With `COc1cc2nc(C)nc(N[C@@H](C)c3ccc(-c4ccc(CNC(C)=O)cc4)s3)c2cc1OC` (racemic) [Example 138, N-[4-(5-{1-[(6,7-dimethoxy-2-methylquinazolin-4-yl)amino]ethyl}thiophen-2-yl)benzyl)acetamide], the IC50 in experiment [1] was 5.57 µM; in experiment [2], 7.43 µM.
For `COc1cc2nc(C)nc(N[C@@H](C)c3ccc(-c4cccc(CNS(C)(=O)=O)c4)s3)c2cc1OC` (racemic) [Example 139, N-[3-(5-{1-[(6,7-dimethoxy-2-methylquinazolin-4-yl)amino]ethyl}thiophen-2-yl)benzyl]methanesulfonamide], the IC50 in experiment [1] stood at 4.7 µM; in experiment [2], 6.13 µM.
In the same order, the values of `COc1cc2nc(C)nc(N[C@@H](C)c3ccc(-c4ccc(CNS(C)(=O)=O)cc4)s3)c2cc1OC` (racemic) [Example 140, N-[4-(5-{1-[(6,7-dimethoxy-2-methylquinazolin-4-yl)amino]ethyl}thiophen-2-yl)benzyl]methanesulfonamide] are 5.33 µM and 5.26 µM.
For the compound `COc1cc2nc(C)nc(N[C@@H](C)c3ccc(-c4ccc(S(C)(=O)=O)cc4)s3)c2cc1OC` (racemic) [Example 149, 6,7-dimethoxy-2-methyl-N-[1-{5-[4-(methylsulfonyl)phenyl]thiophen-2-yl}ethyl]quinazolin-4-amine], the results for the IC50 in experiment [1] and in experiment [2] were 2.36 µM and 4.3 µM, respectively.
For the compound `COc1cc2nc(C)nc(N[C@@H](C)c3ccc(-c4cccc(NS(C)(=O)=O)c4)s3)c2cc1OC` (racemic) [Example 165, N-[3-(5-{1-[(6,7-dimethoxy-2-methylquinazolin-4-yl)amino]ethyl}thiophen-2-yl)phenyl]methanesulfonamide], the half-inhibitory concentration (IC50) came out at 10.6 µM in experiment [1] and 16.4 µM in experiment [2].
As to `COc1cc2nc(C)nc(N[C@@H](C)c3ccc(-c4cccc(S(C)(=O)=O)c4)s3)c2cc1OC` (racemic) [Example 173, 6,7-dimethoxy-2-methyl-N-[1-{5-[3-(methylsulfonyl)phenyl]thiophen-2-yl}ethyl]quinazolin-4-amine], the half-maximal inhibitory concentration (IC50) in experiment [1] worked out at 6.88 µM; in experiment [2] it was 8.05 µM.
Consider `COc1cc2nc(C)nc(N[C@@H](C)c3ccc(-c4ccc(C(=O)N(C)C)cc4)s3)c2cc1OC` (racemic) [Example 176, 4-(5-{1-[(6,7-dimethoxy-2-methylquinazolin-4-yl)amino]ethyl}thiophen-2-yl)-N,N-dimethylbenzamide], for which the half-maximal inhibitory concentration (IC50) is 3.49 µM in experiment [1] and 5.82 µM in experiment [2].

Values taken from patent US20240083857A1, “2-Methyl-Quinazolines” (Bayer Pharma Aktiengesellschaft, priority 2017, published 2024).
